{
  "source": "ChEMBL document CHEMBL1155666",
  "about": "“Zygosporin D and two new cytochalasins produced by the fungus Metarrhizium anisopliae” (2000)",
  "key": {"Oryza sativa [1]": {"tested_on": "Oryza sativa", "assay": "Growth retardation of rice seedlings assessed as second leaf sheath length at 1 nmol after 72 hrs exposure to continuous fluorescent light relative to control", "assay_type": "functional"}, "Oryza sativa [2]": {"tested_on": "Oryza sativa", "assay": "Growth retardation of rice seedlings assessed as reduction in second leaf sheath length at 1 nmol after 72 hrs exposure to continuous fluorescent light relative to water", "assay_type": "functional", "set-up": "scale not given: the % may be the effect or the level left"}},
  "data": [
    {"smiles": "C[C@H]1[C@H]2[C@H](Cc3ccccc3)NC(=O)[C@]23[C@H](O)/C=C/[C@@](C)(O)C(=O)[C@@H](C)C/C=C/[C@H]3C(=O)[C@@H]1C", "values": [
      {"measurement": "Activity", "setting": "Oryza sativa [1]", "value": 94, "unit": "%"}
    ]},
    {"smiles": "CC1=C(C)[C@H]2[C@H](Cc3ccccc3)NC(=O)[C@]23[C@H](O)/C=C/[C@@](C)(O)C(=O)[C@@H](C)C/C=C/[C@H]3[C@@H]1O", "note": "[DEACETYLCYTOCHALASIN C]", "values": [
      {"measurement": "Activity", "setting": "Oryza sativa [1]", "value": 83, "unit": "%"}
    ]},
    {"smiles": "C=C1[C@@H](C)[C@H]2[C@H](Cc3ccccc3)NC(=O)[C@]23[C@H](O)/C=C/[C@@](C)(O)C(=O)[C@@H](C)C/C=C/[C@H]3[C@@H]1O", "note": "[ZYGOSPORIN D]", "values": [
      {"measurement": "Activity", "setting": "Oryza sativa [2]", "value": 41, "unit": "%"}
    ]}
  ]
}
